From ChEMBL document CHEMBL1159226, “Xestobergsterol C, a new pentacyclic steroid from the Okinawan marine sponge Ircinia Sp. and absolute stereochemistry of xestobergsterol A” (J Nat Prod, 1995)
In brackets after ≈: the same amount, converted by molar mass.

system: L1210; assay: Cytotoxicity against mouse L1210 cells; type: functional, cell-based

SMILES	IC50 [µg/mL]
CC(C)C[C@@]1(O)C[C@@H](C)[C@H]2[C@@H]1C(=O)[C@H]1[C@@H]3[C@@H](O)[C@H](O)[C@H]4C[C@H](O)[C@@H](O)[C@@H](O)[C@]4(C)[C@H]3CC[C@]21C	> 10
CC(C)C[C@@]1(O)C[C@@H](C)[C@H]2[C@@H]1C(=O)[C@H]1[C@@H]3[C@@H](O)[C@H](O)[C@H]4C[C@H](O)[C@@H](O)C[C@]4(C)[C@H]3CC[C@]21C	4.1 (≈ 8.82 µM)
CC(C)C[C@@]1(O)C[C@@H](C)[C@H]2[C@@H]1C(=O)[C@H]1[C@@H]3[C@@H](O)[C@H](O)[C@H]4C[C@H](O)CC[C@]4(C)[C@H]3CC[C@]21C	4 (≈ 8.92 µM)
